We go through 87 compounds from a melting point compilation (Tetko et al.; mined from patent text by program, amines drawn as free bases though some values may be those of a salt).

Structures are written as SMILES.

Broadly, the melting point is the temperature of the solid-liquid transition. With `N#CCc1ccc(NS(=O)(=O)c2cccc(Cl)c2Cl)cc1`, the melting point is 202 to 206 °C.

`CC(C)(C)NC1=NS(=O)(=O)c2ccc(Cl)cc2N1` displayed a melting point of 291 to 294 °C.

As to `O=C1NCCc2ccccc2C1c1ccccc1` (configuration not stated), the melting point was 95 to 96 °C.

The compound `C#CCOC(=O)c1cc(-n2c(=O)c3c(n(C)c2=O)CCC3)c(F)cc1Cl` displayed a melting point of 193 to 195 °C.

Consider `CC(C)(C)OC(=O)Nc1ccc(C#Cc2cccc(C#Cc3ccc(NC(=O)OC(C)(C)C)cc3)c2C(=O)O)cc1`, for which the melting point stood at 118 °C.

`O=C(NC(=O)c1cc(F)c(F)cc1Cl)Nc1ccc(C(=O)O)cc1OC(F)(F)F` returned a melting point of 236 °C.

Consider `O=C(c1cc(O)c(O)c(O)c1)c1csc(-c2ccccc2)n1`, for which the melting point lay in the range of 175 to 176 °C.

`CC(C)(C)OC(=O)c1ncn2c1CN(C(=O)N1CCCC1)c1c(F)cccc1-2` yielded a melting point of 214 °C.

Turning to `COc1cccc(NC(=O)O[C@@H]2CN=C(c3ccccc3)O[C@H]2c2ccccc2)c1` (racemic), the melting point came out at 110 °C.

On to `O=c1[nH]c(F)c(Cl)c(Cl)c1Cl`, for which the melting point lay in the range of 172 to 176 °C.

Turning to `Oc1ncnc2c1c(-c1ccco1)nn2Cc1ccccc1`, the melting point turned out to be 242 °C.

`CC(C)(C)OC(=O)N1CCC(NC(=O)c2ccc(-n3ncc4ccccc43)cc2)CC1` came in with a melting point of 165 to 166 °C.

`C#CCC1(C2CCC3C(O[Si](C)(C)C(C)(C)C)CCCC32C)CC1` (configuration not stated) registered a melting point of 49 to 50 °C.

Take `O=S(=O)(c1ccccc1)N1CCN(CC(O)CCl)CC1` (configuration not stated): the melting point was 136 to 137 °C.

The compound `O=c1c2ccc(Cl)cc2[nH]c2c(O)nn(CC#Cc3ccccc3Cl)c(=O)c12` registered a melting point of 255 to 257 °C.

In turn, `CN1Cc2cccnc2N(c2ccc(F)cc2)C1=O` returned a melting point of 212 to 213 °C.

In the case of `O=C(NCc1ccccc1)c1cn2c(=O)n(Cc3ccc(Cl)cc3)c(=O)cc2s1`, the melting point is above 220 °C.

The compound `NS(=O)(=O)c1ccc(-c2cnn(Cc3c(F)cc(F)cc3F)c(=O)c2-c2ccc(F)cc2)cc1` displayed a melting point of 201 to 203 °C.

For `CCN(CC)NC(C)=O`, the melting point is 47.5 to 49.5 °C.

`COC(=O)N(CCCc1ccccc1)[C@H]1CC[C@H](c2ccc(O)cc2)CC1` had a melting point of 128 to 133 °C.

`NC(=O)c1cc([N+](=O)[O-])cc([N+](=O)[O-])c1Cl` returned a melting point of 181 to 183 °C.

In turn, `COc1ccc(-n2ccc(=O)c(-c3ccnn3-c3ccccc3)n2)cc1` registered a melting point of 179 to 180 °C.

Turning to `O=c1cc(-n2ccnc2)c2cc(C(c3ccc(Cl)cc3)n3ccnc3)ccc2[nH]1` (configuration not stated), the melting point came to 242 °C.

`COCC(=O)Nc1nc2c(C)cccc2s1` yielded a melting point of 110 to 111 °C.

As to `C=CCn1c(NCC#N)nc(N2CCc3ccccc3CC2)c(C#N)c1=O`, the melting point is 198 to 203 °C.

Consider `O=S(=O)(Nc1ccc(C(F)(F)F)cc1Cl)c1cc(C(F)(F)F)ccc1Cl`, for which the melting point fell in the range of 122 to 123 °C.

As for `O=C(CCC1CCC(=O)O1)NCCc1ccccc1` (configuration not stated), the melting point lay within 86 to 87 °C.

On to `CCCCc1ncc(/C=C(\Cc2ccc(OC)s2)C(=O)O)n1Cc1ccccc1Cl`, for which the melting point was 184 to 186 °C.

`O=C(CCCc1ccccc1)N[C@H]1C[C@H](C(=O)O)Nc2cc(Cl)cc(Cl)c21` (relative stereo): the melting point was 189 to 191 °C.

Compound `Cn1c(=O)c(-c2c(Cl)cccc2Cl)cc2cnc(Nc3ccc4c(c3)OCO4)nc21` gave a melting point of 240 to 241 °C.

For `Cc1cccc2c1nc(-c1ccncc1)n2Cc1c(F)cccc1F`, the melting point lay within 171 to 172 °C.

As for `COc1ccc(-c2oc(C(F)(F)F)nc2-c2ccc(S(N)(=O)=O)cc2)cc1F`, the melting point lay in the range of 150 to 151 °C.

In turn, `CC1(Cn2nc(Cc3ccc(Cl)cc3)oc2=O)Cn2cc([N+](=O)[O-])nc2O1` (configuration not stated) yielded a melting point of 151 to 153 °C.

`CC1(C)Cc2c(c(N3CCCC3)nc3sc4c(NCc5ccc(S(N)(=O)=O)cc5)ncnc4c23)CO1`: the melting point is 295 °C.

`COC(=O)c1cc(-c2ccc(OC)c(F)c2)nn(CC2CCCC2)c1=O` displayed a melting point of 56 to 66 °C.

Regarding `CN(C)C=C1CCN(c2ccccc2)c2ccccc2C1=O`, the melting point was 131 to 133 °C.

With `CC(C)(C)C(=O)OCOC(=O)C1N2C(=O)C(NC(=O)C(N)c3ccccc3)C2SC1(C)C` (configuration not stated), the melting point is 114 to 116 °C.

As for `COc1cc2c(cn1)OCC21C(=O)Nc2ccccc21` (configuration not stated), the melting point was 231 to 232 °C.

With `CCCCCCCCSc1nc(-c2ccccc2)c(-c2ccccc2)[nH]1`, the melting point lay in the range of 133 to 134 °C.

Turning to `CNC(=O)N1CCSC1c1ccccc1OCCN1CCN(c2ccccc2)CC1` (configuration not stated), the melting point lay within 133 to 135 °C.

In turn, `Fc1ccccc1NC(=S)c1ccccn1` displayed a melting point of 94 to 97 °C.

`CN1CC(CCN2CCC(c3c[nH]c4ccccc34)CC2)C=C2c3cccc4[nH]cc(c34)CC21` (configuration not stated) showed a melting point of 184 to 187 °C.

As to `COc1ccc2cc(-c3ccc(C#C[Si](C)(C)C)cc3)[nH]c(=O)c2c1`, the melting point was in the range of 133 to 135 °C.

In the case of `COc1cccc(OC(=O)NC2C(=O)N(CCC(C)C)c3cc(Cl)c(Cl)cc3N(c3ccccc3)C2=O)c1` (configuration not stated), the melting point was 139 to 140 °C.

Compound `Cc1cc2c([nH]c1=O)C(=O)c1ccccc1C2=O` showed a melting point above 300 °C.

In turn, `Nc1ccc2ccc(-c3ccc(Cl)c(Cl)c3)nc2n1` returned a melting point of 210 °C.

As for `Cc1cccc(/C(N)=C2\Sc3ccccc3C2=O)c1`, the melting point lay within 114 to 115 °C.

Regarding `CCCCc1ccc(C#Cc2ccc(C=O)cc2)cc1`, the melting point is 76 to 78 °C.

As for `CCON1CCC2(CC1)NC(=O)C(c1c(C)cc(C)cc1C)=C2OC(=O)C(C)(C)C`, the melting point was in the range of 230 to 231 °C.

The compound `FC(F)(F)c1ccc(NC(=S)Nc2ncccc2OCc2ccccc2)cc1` came in with a melting point of 165 to 167 °C.

For `COC(=O)N(C)C(=O)N(SC(Cl)Cl)c1ccccc1`, the melting point fell in the range of 77 to 78 °C.

In turn, `Cc1nn2ccccc2c1C(=O)C1=CNCCC1` displayed a melting point of 207 to 208 °C.

`O=C(c1ccc(-c2ccccc2)s1)c1ccc(Br)cc1Cl` displayed a melting point of 132 to 134 °C.

The compound `Fc1ccc(-c2[nH]c(C3CCN(Cc4ccccc4)CC3)nc2-c2ccncc2)cc1` had a melting point of 212 to 215 °C.

In the case of `CC(C)(C)OC(=O)N1CCO[C@@H](c2ccc(C(N)=O)cc2)C1`, the melting point is 179 °C.

`C[C@@H](n1ncnn1)[C@](O)(Cn1ccnc1)c1ccc(F)cc1F` registered a melting point of 158 to 160 °C.

`CON1CCC(C2NC(=O)C(c3c(C)cc(C)cc3C)=C2O)CC1` (configuration not stated) showed a melting point of 206 to 209 °C.

Consider `C=CCc1cc2c(cc1O)CC(=O)N2CC`, for which the melting point is 130 to 131 °C.

In turn, `O=c1cc(C2(Br)CCCCC2)oc2c(CBr)cccc12` gave a melting point of 134 to 135 °C.

For `Cc1cccc2c1N(CC(=O)c1ccccc1[N+](=O)[O-])C(=O)C(NC(=O)Nc1cccc(-c3nnn[nH]3)c1)N=C2c1ccccc1F` (configuration not stated), the melting point was 192 to 197 °C.

The compound `COC(=O)c1ccc(COc2ccc(-c3ncccc3S(=O)(=O)N(C(=O)OCC(C)C)c3ncc(C)nc3OC)cc2)cc1` returned a melting point of 134 to 135 °C.

As for `CC12CCC(C1)C1(C)Oc3ccc(C(=O)c4ccc(C(=O)O)cc4)cc3C21C` (configuration not stated), the melting point is 262 to 264 °C.

Compound `CCCCCCNc1ccccc1CC(=O)Nc1c(C(C)C)cccc1C(C)C` had a melting point of 110 to 112 °C.

As for `COC(=O)C1=C(CCc2ccccc2OC)NC(CC(=O)N2CCN(CC(=O)NC(C)C)CC2)=C(C(=O)OC)C1c1c(Cl)cccc1Cl` (configuration not stated), the melting point fell in the range of 161 to 163 °C.

Compound `COC(=O)c1cc(I)cnc1Cl` showed a melting point of 49 to 50 °C.

Regarding `O=c1[nH]c2cc(Cl)ccc2n1-c1cc(Cl)ccc1O`, the melting point fell in the range of 256 to 257 °C.

In turn, `COc1nc(C)nc(OC)c1C=S` displayed a melting point of 136 °C.

Compound `COc1ccc(N2CCN(c3ccc(N4C(=O)NC(C)(C)C4=O)cc3)CC2)cc1` gave a melting point of 255 °C.

With `COc1cc(C(=O)NC2CCN(C(=O)CN(C)C)CC2)ccc1Nc1ncc2c(n1)N(C1CCCCC1)CC(F)(F)C(=O)N2C`, the melting point was in the range of 190 to 191 °C.

Compound `CCc1cc(OCc2ccccc2)cc(=O)o1` returned a melting point of 62 to 63 °C.

Turning to `N#CC(CCCCOc1ccccc1)(Cn1cncn1)c1ccccc1` (configuration not stated), the melting point lay in the range of 95 to 96 °C.

`C=CCN(CC=C)c1nc(N)n2oc(=O)nc2n1` registered a melting point of 211 to 213 °C.

`Cc1ccc(NC(=O)c2ccc(C(=O)Nc3ccccc3N)s2)cc1Nc1nccc(-c2cccnc2)n1` came in with a melting point of 280 °C.

Compound `OCc1cc(-c2ccccc2)cs1` yielded a melting point of 112 to 113 °C.

`N#Cc1nn(-c2c(Cl)cc(C(F)(F)F)cc2Cl)cc1-c1occc1Br` returned a melting point of 99 to 101 °C.

In turn, `Cc1ccccc1C(=O)Nc1ccc(C(=O)N2CCCC(CN)c3ccccc32)cc1` (configuration not stated) displayed a melting point of 233 to 235 °C.

`C[C@H]1[C@H](c2ccccc2)OC(c2cc(Br)cc3c2OCC3)N1C` (some centres not stated) yielded a melting point of 83.5 to 85.5 °C.

For the compound `CC(O)N(C)C(=O)c1cc(C(C)(C)C)c(O)c(C(C)(C)C)c1` (configuration not stated), the melting point lay within 161 to 164 °C.

As for `Cc1ccc(-c2ccc(C(=O)Nc3ccc4nc(CN5CCOCC5)ccc4c3)cn2)cc1`, the melting point was in the range of 214 to 216 °C.

The compound `COCOc1ccc(-c2ncc3ccc(-c4csc(CN5CCN(C)CC5)c4)nc3n2)cc1` came in with a melting point above 268 °C.

`COC(=O)C(=CNc1cc(-c2cccc(Cl)c2)sc1C(=O)O)SC` had a melting point of 84 to 86 °C.

Turning to `CC(=O)n1ncc2c(O)ccc(C)c21`, the melting point was in the range of 135 to 136 °C.

`CSc1nc(N)c2nsnc2n1` returned a melting point of 197 to 199 °C.

Compound `Cc1cnc(CCCCNc2ncc(Cc3ccc(CO)nc3)c(=O)[nH]2)c(Br)c1` showed a melting point of 150 to 152 °C.

With `CC(C)(C)NN=C(O)C(=O)c1ccccc1`, the melting point fell in the range of 138 to 139 °C.

The compound `CCOC(=O)CCCn1nnnc1-c1ccc2c(c1)[C@@H](Nc1ccnc(SC)n1)[C@](C)(O)C(C)(C)O2` displayed a melting point of 115 to 130 °C.

In the case of `CCCCCCCCc1cnc(-c2ccc(C#N)cc2)nc1`, the melting point was 66.1 to 66.5 °C.
